According to the supplement of paper PMC10307832:

Legend:
Test in all cases: relative viability (nuclei count vs DMSO), 5 days (fraction); higher = more cells survive
[1] = compound: CCn1c(-c2nonc2N)nc2cnc(Oc3cccc(NC(=O)c4ccc(OCCN5CCOCC5)cc4)c3)cc21 + CC(=O)Nc1cccc(-n2c(=O)n(C3CC3)c(=O)c3c(Nc4ccc(I)cc4F)n(C)c(=O)c(C)c32)c1 [Trametinib] (partner 0.02 µM)
Summary of the method: (§1)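 Lung cancer cell lines in 1536-well plates got either a single drug or a fixed anchor-drug dose together with five library-drug doses (not always all listed) in √10 steps, by pin tool, on the day after seeding. Nuclei were counted after 5 days, and relative viability is the treated-to-vehicle ratio of nuclei counts. Values are medians of duplicate plates.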

[2] = compound: CCn1c(-c2nonc2N)nc2cnc(Oc3cccc(NC(=O)c4ccc(OCCN5CCOCC5)cc4)c3)cc21 + CCNC(=O)c1noc(-c2cc(C(C)C)c(O)cc2O)c1-c1ccc(CN2CCOCC2)cc1 [Luminespib] (partner 0.01 µM)
Summary of the method: as §1

[3] = compound: CCC1=CN=CN=C1N2CCN(CC2)CC3=NC4=C(N3)C=C(C=C4)C(F)(F)F + CC1(C)CCC(c2ccc(Cl)cc2)=C(CN2CCN(c3ccc(C(=O)NS(=O)(=O)c4ccc(N[C@H](CCN5CCOCC5)CSc5ccccc5)c(S(=O)(=O)C(F)(F)F)c4)cc3)CC2)C1 [Navitoclax] (partner 0.5 µM)
Summary of the method: as §1

[4] = compound: CCC1=CN=CN=C1N2CCN(CC2)CC3=NC4=C(N3)C=C(C=C4)C(F)(F)F + N=C(N)NC(=N)NCCc1ccccc1 [Phenformin] (partner 250 µM)
Summary of the method: as §1

Cell Line	relative viability ([1]; first compound 0.04 µM)	relative viability ([1]; first compound 0.1265 µM)	relative viability ([1]; first compound 0.4 µM)	relative viability ([1]; first compound 1.265 µM)	relative viability ([1]; first compound 4 µM)	relative viability ([2]; first compound 0.04 µM)	relative viability ([2]; first compound 0.1265 µM)	relative viability ([2]; first compound 0.4 µM)	relative viability ([2]; first compound 1.265 µM)	relative viability ([2]; first compound 4 µM)	relative viability ([3]; first compound 0.04 µM)	relative viability ([3]; first compound 0.1265 µM)	relative viability ([3]; first compound 0.4 µM)	relative viability ([3]; first compound 1.265 µM)	relative viability ([3]; first compound 4 µM)	relative viability ([4]; first compound 0.04 µM)	relative viability ([4]; first compound 0.1265 µM)	relative viability ([4]; first compound 0.4 µM)	relative viability ([4]; first compound 1.265 µM)	relative viability ([4]; first compound 4 µM)
HCC-44	1.06	1.12	1.04	1.05	1.03	0.772	0.974	0.478	0.17	0.126	1.01	1.06	0.895	0.823	0.919	0.176	0.208	0.266	0.28	0.247
RERF-LC-KJ	0.862	0.898	0.826	0.562	0.589	1.35	1.21	1.04	0.795	0.64	0.906	0.887	0.956	0.698	0.719	0.407	0.382	0.467	0.366	0.41
LOU-NH91	0.751	0.697	0.617	0.543	0.487	0.367	0.328	0.331	0.271	0.248	0.626	0.692	0.708	0.583	0.752	0.605	0.692	0.685	0.669	0.714
PC-3 [JPC-3]	0.693	0.589	0.591	0.598	0.537	0.849	0.73	0.718	0.726	0.626	0.912	0.781	0.745	0.733	0.775	0.456	0.456	0.457	0.505	0.479
NCI-H2126	0.61	0.594	0.562	0.583	0.57	1.06	0.903	0.776		0.635	0.818	0.818	0.839	0.794	0.867	0.524	0.533	0.521	0.515	0.581
LU99A	0.569	0.595	0.567	0.584	0.497	0.264	0.221	0.286	0.26	0.249	0.846	0.825	0.864	0.709	0.657	0.858	0.795	0.808	0.634	0.942
BEN	0.955	0.972	0.702	0.518	0.521	0.496	0.235	0.158	0.163	0.249	0.0475	0.075	0.0493	0.0611	0.0644	0.254	0.255	0.229	0.253	0.265
SW 1573	0.716	0.577	0.478	0.229	0.19	0.251	0.207	0.123	0.196	0.137	0.95	1.09	0.709	0.801	0.891	0.405	0.415	0.3	0.406	0.357
NCI-H1975	0.261	0.256	0.219	0.154	0.176	0.229	0.136	0.199	0.139	0.125	1.15	1.08	1.06	0.879	0.931	0.434	0.392	0.374	0.382	0.436
SK-LU-1	0.481	0.386	0.378	0.254	0.311	0.231	0.155	0.189	0.159	0.172	0.78	0.762	0.929	0.697	0.868	0.523	0.534	0.509	0.385	0.579
NCI-H460	0.132	0.203	0.0433	0.0407	0.0579	0.0313	0.0331	0.0317	0.0272	0.0222	1.25	1.01	1.01	1.09	1.11	0.465	0.525	0.484	0.439	0.499
NCI-H1915	0.267	0.31	0.309	0.227	0.221	0.905	0.831	0.949	0.775	0.716	0.819	0.735	0.847	0.722	0.809	0.361	0.362	0.376	0.344	0.358
